Measured values published in US20150368248A1, “2-SUBSTITUTED-6-BIARYLMETHYLAMINO-9-CYCLOPENTYL-9H-PURINE DERIVATIVES, USE THEREOF AS MEDICAMENTS, AND PHARMACEUTICAL COMPOSITIONS” (UNIVERZITA PALACKEHO V OLOMOUCI, priority 2013, published 2015).
pIC50: −log10 of the molar value. Read-outs that look alike come from different tables or passages of the source.

How the values were obtained:
[1] = test system: Hep3B; test: MTT cytotoxicity assay (Example 30); type: cell-based, human; conditions: Homo sapiens, Hep3B, 72 h; MTT, three days after drug addition; read-out: Inhibitory concentration IC50, Hep3B
Method: (§1) Cytotoxicity of the compounds is the major property determining their anticancer effect in vivo. One of the parameters used, as the basis for cytotoxicity assays, is the metabolic activity of viable cells.
(§2) We have been using the following cell lines: HUH-7 and PLC/PRF/5 cell lines were maintained in DMEM supplemented with 10% fetal bovine serum, penicillin (100 U/ml) and streptomycin (100 μg/ml). […] HepG2 cell line was maintained in EMEM supplemented with 10% fetal bovine serum, sodium pyruvate (0.11 g/1), penicillin (100 U/ml) and streptomycin (100 μg/ml). All cell lines were cultivated at 37° C. in 5% CO2. For cytotoxicity assays, 3000 cells (10000 cells in case of HepG2 cell line) were seeded into each well of 96 well plate and the next day tested compounds were added at various concentrations in triplicates. Three days after drug addition MTT stock solution (5 mg/ml) was added into each well and incubated for 4 h. After this incubation period, produced formazan was dissolved by DMSO and final absorbance was measured at 570 nm with Synergy H4 Hybrid Multi-Mode Microplate Reader.

[2] = test system: HCC-1.2 (3p); test: MTT cytotoxicity assay (Example 30); type: cell-based; conditions: Homo sapiens, HCC-1.2, 72 h; MTT, three days after drug addition; read-out: Inhibitory concentration IC50, 3p
Method: as §1, §2

[3] = test system: HCC-1.1 (3sp); test: MTT cytotoxicity assay (Example 30); type: cell-based; conditions: Homo sapiens, 72 h; MTT, three days after drug addition; read-out: Inhibitory concentration IC50, 3sp
Method: as §1, §2

[4] = test system: PLC/PRF/5; test: MTT cytotoxicity assay (Example 30); type: cell-based; conditions: Homo sapiens, PLC-PRF-5, 72 h; MTT, three days after drug addition; read-out: Inhibitory concentration IC50, PLC/PRF/5
Method: as §1, §2

[5] = test system: HUH-7; test: MTT cytotoxicity assay (Example 30); type: cell-based; conditions: Homo sapiens, Huh-7, 72 h; MTT, three days after drug addition; read-out: Inhibitory concentration IC50, HUH-7
Method: as §1, §2

[6] = molecular target: T1, CDK9/Cyclin T1 (Homo sapiens, UniProt P50750); test: Kinase inhibition assay, recombinant kinase, [γ-33P]ATP; type: biochemical; conditions: read-out: Residual kinase activity, CDK9; for remaining activity at 0.1 µM: 100 nM; for remaining activity at 1 µM: 1000 nM
T1 construct: purchased ProQinase GmbH (Freiburg, Germany)
Method: (§3) CDK2/Cyclin E kinase was produced in Sf9 insect cells via baculoviral infection and purified on a NiNTA column (Qiagen). CDK5/p35, CDK7Cyclin H/MAT1 and CDK9/Cyclin T1 was purchased from ProQinase GmbH. The kinase reactions were assayed with 1 mg/mL histone H1 (for CDK2 and CDK5) or (YSPTSPS)2KK peptide (for CDK7 and CDK9) in the presence of 15/0.15/1.5/1.5 μM ATP (for CDK2/CDK5/CDK7CDK9), 0.05 μCi [γ-^33P]ATP and of the test compound in a final volume of 10 μL, all in a reaction buffer (60 mM HEPES-NaOH, pH 7.5, 3 mM MgCl2, 3 mM MnCl2, 3 μM Na-orthovanadate, 1.2 mM DTT, 2.5 μg/50 μl PEG20,000). The reactions were stopped by adding 5 μL of 3% aq H3PO4. Aliquots were spotted onto P-81 phosphocellulose (Whatman), washed 3× with 0.5% aq H3PO4 and finally air-dried.
(§4) CDK1/cyclin B and CDK2/cyclin E kinases were produced in Sf9 insect cells via baculoviral infection, while CDK5/p35, CDK7/cyclin H/MAT1, and CDK9/cyclin T1 were purchased from ProQinase (Freiburg, Germany) and assayed as described previously (35). The kinase reactions were assayed with 1 mg/ml histone H1 (for CDK2 and CDK5) or (YSPTSPS)2KK peptide (for CDK7 and CDK9) in the presence of 15/0.15/1.5/1.5 […] ATP (for CDK2/CDK5/CDK7CDK9), […] [γ-^33P]ATP and of the test compound in a final volume of […]. The reaction buffer contained 60 mM HEPES-NaOH, pH 7.5, 3 mM MgCl2, 3 mM MnCl2, 3 mM Na-orthovanadate, 1.2 mM DTT, 2.5 mg/50 ml PEG20.000. The reactions were stopped by adding […] of 3% H3PO4. Aliquots were spotted onto P-81 phosphocellulose (Whatman, GE Healthcare Biosciences, Pittsburgh, USA), washed 3 times with 0.5% H3PO4 and finally air-dried. Kinase inhibition was quantified using a FLA-7000 digital image analyzer (Fujifilm, Tokyo, Japan).

[7] = molecular target: T2, CDK7/cyclin H/MAT1 (Homo sapiens, UniProt P50613); test: as above; type: biochemical; conditions: read-out: Residual kinase activity, CDK7; for remaining activity at 0.1 µM: 100 nM; for remaining activity at 1 µM: 1000 nM
T2 construct: purchased ProQinase GmbH (Freiburg, Germany)
Method: as §3, §4

[8] = molecular target: T3, CDK5/p35 (Homo sapiens, UniProt Q00535); test: as above; type: biochemical; conditions: read-out: Residual kinase activity, CDK5; for remaining activity at 0.1 µM: 100 nM; for remaining activity at 1 µM: 1000 nM
T3 construct: purchased ProQinase GmbH (Freiburg, Germany)
Method: as §3, §4

[9] = test system: human umbilical vein endothelial cells (HUVEC); test: HUVEC proliferation, Calcein AM; type: cell-based; conditions: Homo sapiens, HUVEC, read-out: Inhibitory concentration for HUVEC cells - IC50
Method: Novel 2-substituted-6-biarylmethylamino-9-cyclopentyl-9H-purine derivatives were tested for their potential anti-angiogenic properties; we analyzed its influence on the proliferation (Tab. 9), migration and tube formation of human umbilical vein endothelial cells (HUVEC). Confluent HUVECs were seeded in 96-well microtiter plates to detect their proliferation for 24 or 72 h using Calcein AM solution (Invitrogen) and a Fluoroskan Ascent microplate reader (Labsystems) as described previously (Krystof et al., 2011, Eur J Med Chem. 2011 September; 46(9):4289-94).

[10] = test system: human umbilical vein endothelial cells (HUVECs); test: Migration scratch assay; type: cell-based; set-up: key to Wound area: ++: open; +: partly open; 0: closed; conditions: 24 h
Method: Migration assay was performed as described previously (Krystof et al., 2011, Eur J Med Chem.; 46(9):4289-94). Briefly, confluent HUVECs were scratched and immediately treated for 24 h with various doses of compounds. After incubation each well was photographed using a DP Controller system (Olympus) connected to a Olympus BX50 microscope. Migration was expressed as the proportion of pixels of the wound area in the image that were not covered by cells using “in house” software.

T2 sequence (P50613 whole entry): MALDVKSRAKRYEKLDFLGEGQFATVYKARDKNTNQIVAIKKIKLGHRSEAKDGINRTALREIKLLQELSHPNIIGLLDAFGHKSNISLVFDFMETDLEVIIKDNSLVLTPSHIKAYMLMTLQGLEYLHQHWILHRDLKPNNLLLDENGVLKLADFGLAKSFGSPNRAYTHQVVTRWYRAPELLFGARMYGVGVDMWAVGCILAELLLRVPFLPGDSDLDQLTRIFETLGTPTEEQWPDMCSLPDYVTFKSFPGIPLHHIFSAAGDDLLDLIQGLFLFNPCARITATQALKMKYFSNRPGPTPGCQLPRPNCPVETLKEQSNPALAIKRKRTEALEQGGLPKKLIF
T2 sequence (P51946 whole entry partner): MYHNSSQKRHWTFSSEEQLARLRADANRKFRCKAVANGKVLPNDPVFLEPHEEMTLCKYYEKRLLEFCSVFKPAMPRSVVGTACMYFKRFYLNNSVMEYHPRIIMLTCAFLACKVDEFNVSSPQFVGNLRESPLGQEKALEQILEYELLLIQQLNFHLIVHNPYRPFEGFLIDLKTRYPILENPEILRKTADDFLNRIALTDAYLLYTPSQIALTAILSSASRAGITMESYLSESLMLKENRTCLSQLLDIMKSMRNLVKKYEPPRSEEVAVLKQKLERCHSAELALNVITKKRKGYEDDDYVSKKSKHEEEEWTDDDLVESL
T2 sequence (P51948 whole entry partner): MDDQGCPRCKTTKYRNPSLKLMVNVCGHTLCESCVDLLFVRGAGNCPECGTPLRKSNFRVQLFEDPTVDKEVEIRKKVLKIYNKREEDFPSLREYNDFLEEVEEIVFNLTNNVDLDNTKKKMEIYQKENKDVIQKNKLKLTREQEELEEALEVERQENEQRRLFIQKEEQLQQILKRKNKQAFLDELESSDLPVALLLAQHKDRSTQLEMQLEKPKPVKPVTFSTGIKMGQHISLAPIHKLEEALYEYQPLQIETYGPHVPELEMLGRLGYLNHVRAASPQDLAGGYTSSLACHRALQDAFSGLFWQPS
T1 sequence (P50750 whole entry): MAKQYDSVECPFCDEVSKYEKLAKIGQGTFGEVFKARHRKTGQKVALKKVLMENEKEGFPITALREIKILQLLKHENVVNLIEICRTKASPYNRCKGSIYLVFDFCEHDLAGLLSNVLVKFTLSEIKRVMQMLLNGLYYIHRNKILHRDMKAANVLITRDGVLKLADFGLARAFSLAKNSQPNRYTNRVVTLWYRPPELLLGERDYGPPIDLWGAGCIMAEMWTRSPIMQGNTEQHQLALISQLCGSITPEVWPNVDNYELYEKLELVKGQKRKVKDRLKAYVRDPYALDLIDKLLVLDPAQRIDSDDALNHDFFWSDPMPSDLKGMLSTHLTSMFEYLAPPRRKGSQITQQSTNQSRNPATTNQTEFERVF
T1 sequence (O60563 whole entry partner): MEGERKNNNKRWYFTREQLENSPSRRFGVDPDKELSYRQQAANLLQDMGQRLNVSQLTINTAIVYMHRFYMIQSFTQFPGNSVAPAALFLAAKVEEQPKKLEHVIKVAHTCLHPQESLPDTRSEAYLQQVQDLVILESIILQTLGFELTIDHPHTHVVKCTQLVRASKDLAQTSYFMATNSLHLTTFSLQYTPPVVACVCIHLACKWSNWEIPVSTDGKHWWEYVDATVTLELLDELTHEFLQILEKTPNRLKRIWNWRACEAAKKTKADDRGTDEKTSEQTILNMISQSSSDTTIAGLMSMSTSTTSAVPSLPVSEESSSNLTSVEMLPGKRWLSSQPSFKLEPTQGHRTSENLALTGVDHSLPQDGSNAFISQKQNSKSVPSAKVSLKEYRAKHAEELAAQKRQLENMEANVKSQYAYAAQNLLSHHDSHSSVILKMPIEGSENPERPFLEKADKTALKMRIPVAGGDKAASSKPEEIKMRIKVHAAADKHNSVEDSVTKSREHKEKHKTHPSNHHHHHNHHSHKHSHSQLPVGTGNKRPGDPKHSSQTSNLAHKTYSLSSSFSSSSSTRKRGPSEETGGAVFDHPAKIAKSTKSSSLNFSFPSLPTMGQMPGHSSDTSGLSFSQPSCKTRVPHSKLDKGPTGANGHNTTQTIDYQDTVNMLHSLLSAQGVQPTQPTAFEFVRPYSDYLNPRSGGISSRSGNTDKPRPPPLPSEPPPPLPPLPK
T3 sequence (Q00535 whole entry): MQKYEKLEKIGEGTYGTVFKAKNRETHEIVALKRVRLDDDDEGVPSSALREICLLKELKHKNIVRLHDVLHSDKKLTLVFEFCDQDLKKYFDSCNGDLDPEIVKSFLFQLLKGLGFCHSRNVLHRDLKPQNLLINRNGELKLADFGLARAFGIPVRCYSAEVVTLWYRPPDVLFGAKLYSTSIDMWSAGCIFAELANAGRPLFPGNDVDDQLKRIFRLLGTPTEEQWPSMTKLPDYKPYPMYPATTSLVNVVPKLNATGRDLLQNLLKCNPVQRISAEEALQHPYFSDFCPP
T3 sequence (Q15078 whole entry partner): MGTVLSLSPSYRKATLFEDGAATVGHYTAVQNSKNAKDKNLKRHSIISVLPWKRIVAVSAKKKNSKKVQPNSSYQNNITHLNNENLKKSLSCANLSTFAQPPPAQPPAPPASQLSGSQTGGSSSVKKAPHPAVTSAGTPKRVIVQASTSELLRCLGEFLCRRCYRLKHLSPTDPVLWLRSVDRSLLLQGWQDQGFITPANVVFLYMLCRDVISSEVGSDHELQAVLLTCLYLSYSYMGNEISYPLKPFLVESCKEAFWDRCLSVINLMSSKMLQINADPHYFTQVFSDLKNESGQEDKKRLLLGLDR

| SMILES | pIC50 [1] | pIC50 [2] | pIC50 [3] | pIC50 [4] | pIC50 [5] | remaining activity at 0.1 µM [6] [%] | remaining activity at 1 µM [6] [%] | remaining activity at 0.1 µM [7] [%] | remaining activity at 1 µM [7] [%] | remaining activity at 0.1 µM [8] [%] | remaining activity at 1 µM [8] [%] | pIC50 ([9]; 24 h) | pIC50 ([9]; 72 h) | Wound area ([10]; 100 nM) | Wound area ([10]; 1000 nM) |
| --- | --- | --- | --- | --- | --- | --- | --- | --- | --- | --- | --- | --- | --- | --- | --- |
| COc1ccccc1-c1ccc(CNc2nc(NC3CCC(N)CC3)nc3c2ncn3C2CCCC2)cc1 (centres unmarked) [BP16, N^2-(4-amino-cyclohexyl)-9-cyclopentyl-N^6-(2′-methoxy-biphenyl-4-ylmethyl)-9H-purine-2,6-diamine] | 6.27 | 6.24 | 6.12 | 6.89 | 6.44 | – | – | – | – | – | – | – | – | – | – |
| COc1ccccc1-c1ccc(CNc2nc(NC3CCC(N)CC3)nc3c2ncn3C2CCCC2)cn1 (centres unmarked) [BP18, N^2-(4-amino-cyclohexyl)-9-cyclopentyl-N^6-[6-(2-methoxy-phenyl)-pyridin-3-ylmethyl]-9H-purine-2,6-diamine] | 6.63 | 6.10 | 6.10 | 7.66 | 6.21 | 32.6 | 1.03 | 54.1 | 24.1 | 49.2 | 23.6 | < 4.30 | 6.28 | + | ++ |
| OC1CCC(Nc2nc(NCc3ccc(-c4ccco4)nc3)c3ncn(C4CCCC4)c3n2)CC1 (centres unmarked) [BP21, 4-{9-cyclopentyl-6-[(6-furan-2-yl-pyridin-3-ylmethyl)-amino]-9H-purine-2-ylamino}-cyklohexanol] | 6.31 | 6.78 | 6.39 | 7.34 | 6.81 | 49 | 7.74 | 72 | 48.5 | 88.2 | 23.4 | – | – | – | – |
| Nc1ccccc1-c1ccc(CNc2nc(NC3CCC(N)CC3)nc3c2ncn3C2CCCC2)cn1 (centres unmarked) [BP22, N^2-(4-amino-cyclohexyl)-9-cyclopentyl-N^6-[6-(2-amino-phenyl)-pyridin-3-ylmethyl]-9H-purine-2,6-diamine] | 6.31 | 6.36 | 6.29 | 6.55 | 6.19 | 93.4 | 82.8 | 70 | 93.9 | 87.8 | 89 | – | – | – | – |
| NC1CCC(Nc2nc(NCc3ccc(-n4cccn4)cc3)c3ncn(C4CCCC4)c3n2)CC1 (centres unmarked) [BP24, N^2-(4-amino-cyclohexyl)-9-cyclopentyl-N^6-(4-pyrazol-1-yl-benzyl)-9H-purine-2,6-diamine] | 6.94 | 6.77 | 6.47 | 7.92 | 6.75 | – | – | – | – | – | – | < 4.30 | 6.77 | + | ++ |
| Nc1ccccc1-c1ccc(CNc2nc(NC3CCC(N)CC3)nc3c2ncn3C2CCCC2)cc1 (centres unmarked) [BP32, N^2-(4-amino-cyclohexyl)-9-cyclopentyl-N^6-(2′-amino-biphenyl-4-ylmethyl)-9H-purine-2,6-diamine] | 6.40 | 6.27 | 6.16 | 6.91 | 6.19 | – | – | – | – | – | – | – | – | – | – |
